Measured values from patent US8163788B2, “Low-molecular inhibitors of cytohesin-family guanine nucleotide exchange factors” (Rheinische Friedrich-Wilhelms Universitat Bonn, priority 2004, dated 2012).

Assays:
human dendritic cells = experiment: migration (chemotaxis) of dendritic cells in modified Boyden chambers on ICAM-1; type: cell-based; conditions: 1 μM, 10 μM or 15 μM, 96 hours; chemokines CCL19 or CXCL12; FIG. 5
Protocol: Dendritic cells were produced in vitro by means of differentiation factors (IL-4 and GM-CSF) from blood monocytes that were isolated from peripheral mononuclear cells (PBMC) by Ficoll density gradient centrifugation from the human blood of anonymous donors.
The blood was mixed at a ratio of 1:1 with PBS (KCl 0.2 g/l, KH2PO4 0.2 g/l, NaCl 8 g/l, Na2HPO4 1.15 g/l, PAA, Cölbe)/2 mM EDTA and layered onto half the volume of Ficoll. Centrifugation was carried out at 300×g, 30 minutes with no brake. After the centrifugation, a centered white band appeared which contained the PBMC. This was picked up with PBS/2 mM EDTA, filled up to 50 ml and subjected to several washing steps at 640×g, 500×g, 400×g, 300×g and 200×g. Subsequently, the cells were picked up in a titer of 5×10^6/ml in “VLE-RPMI+/+”-medium (Biochrom, Berlin, containing 10% fetal calf serum (FCS) and 1% penicillin/streptomycin) and incubated for 90 minutes in an incubator at 37° C. [98.6° F.] and 5% CO2. During this time, the monocytes adhere to the bottom of the culture dish. […]
The quantitative analysis of the cell migration was carried out in modified Boyden chambers consisting of a 24-hole plate into which the Transwell® filters with a 5 μm pore size had been placed. […] [98.6° F.] and 5% CO2 in the incubator and subsequently, the number of cells that had migrated into the lower chamber in the direction of the chemokine was determined. […]

[1] = MTT assay (LC50) in HeLa-cells; type: cell-based; conditions: human, after 24 hours
Protocol: The LC50 values were determined by an MTT assay according to a standard method.
The LC50 value describes the lethal concentration at which […] died within 24 hours after a one-time administration.

For `COc1nc(-c2ccc3c(c2)OCO3)n(-c2ccc(NC(=O)CSc3ccccc3)cc2)n1` [Compound 9], the “inhibition of the migration of dendritic cells on the substrate ICAM-1” value (human dendritic cells) was “concentration-dependent inhibition” and the CC50 at 24 h [1] was 141 ± 8 µM.
